pIC50: −log10 of the molar value.
Each compound was assayed on S. Typhimurium GFP reporter counter-screen, fluorescence, 4 h (assay: nmpC-GFP reporter counter-screen in S. Typhimurium, dose response, counter-screen for PhoP regulon inhibitor project, Salmonella Typhimurium, GFP fluorescence (AID 2401);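 note: S. typhimurium with Mg-insensitive nmpC-GFP reporter grown at 10 µM Mg2+; drop in reporter fluorescence reflects general culture growth inhibition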).

Row | Structure (SMILES) | pIC50
1 | O=C(Oc1c(Cl)cc(Cl)c2cccnc12)c1ccco1 | 4.66
2 | O=C(O)c1cc(O)c2c(c1)[C@@H]([C@H]1c3cc(C(=O)O)cc(O)c3C(=O)c3c(O[C@@H]4O[C@H](CO)[C@@H](O)[C@H](O)[C@H]4O)cccc31)c1cccc(OC3O[C@H](CO)[C@@H](O)[C@H](O)[C@H]3O)c1C2=O (stereo partly specified) | 4.08
3 | Cc1cccc(Nc2cc(C)c3c(O)cccc3n2)c1C | 4.41
4 | COc1c(N2CCNC(C)C2)c(F)cc2c(=O)c(C(=O)O)cn(C3CC3)c12 (stereo unspecified) | 5.98
5 | CN1CCN(C(c2ccc(Br)cc2)c2cc(Cl)c3cccnc3c2O)CC1 (stereo unspecified) | 4.70
6 | Cc1ccc(-c2csc(N=C(N)N)n2)cc1 | 3.96
7 | O=C(NC(CO)Cc1ccc([N+](=O)[O-])cc1)C(Cl)Cl (stereo unspecified) | 4.90
8 | CCCCCc1ccc(OCCC[n+]2ccccc2)c(CCCCC)c1 | 4.15
9 | O=C(O)C1Nc2c(O)cccc2C2C=CCC12 (stereo unspecified) | 4.06
10 | Cc1ccc(C(c2cc(Cl)c3cccnc3c2O)N2CCN(C)CC2)cc1 (stereo unspecified) | 4.48
11 | Clc1ccc(Cl)c(OCCCCNCc2ccccc2)c1 | 4.01
12 | Nc1ccc2nc(-c3cc(Cl)c(N)c(Cl)c3)[nH]c2c1 | 4.09
13 | Oc1c(C(Nc2nc3ccccc3s2)c2ccco2)ccc2cccnc12 (stereo unspecified) | 3.98
14 | O=C(NC(=S)NNC(=O)c1ccccc1O)c1ccco1 | 4.38
15 | CC(=O)Oc1cc2cccc(OC(C)=O)c(=O)c2c(OC(C)=O)c1OC(C)=O | 4.20
16 | O=C1OCC(CO)(CO)N=C1NNc1ccc(Cl)c(Cl)c1 | 3.96
17 | NC1=NC[C@H](Cc2ccccc2)N1CCCCC1CCCCC1 | 4.34
18 | CCCCCCCOC(=O)C[N+](C)(C)CCOC1CC2CCC1(C)C2(C)C (stereo unspecified) | 4.70
19 | COc1ccc(C(C[N+](=O)[O-])c2c(-c3ccccc3)cc3ccccn23)cc1 (stereo unspecified) | 4.52

Row | Structure (SMILES) | pIC50
20 | COc1ccc2[nH]c3c(C)c4ccncc4c(C)c3c2c1 | 4.69
21 | CN(C)S(=O)(=O)c1cccc(NC(=S)N/N=C/c2cc(Br)ccc2O)c1 | 4.49
22 | CCCCCCNC(=O)c1cn(CC)c2cc(N3CCN(C)CC3)c(F)cc2c1=O | 4.41
23 | CS(=O)(=O)c1ccc([C@@H](O)[C@@H](CO)NC(=O)C(Cl)Cl)cc1 | 4.06
24 | CC(=O)NC(c1ccc(C)cc1)c1cc([N+](=O)[O-])c2cccnc2c1O (stereo unspecified) | 4.47
25 | O=C(N/N=C/c1coc2ccc(Cl)cc2c1=O)c1cc(O)cc(O)c1 | 4.06
26 | CO/N=C(/C(=O)N[C@@H]1C(=O)N2C(C(=O)O)=CCS[C@H]12)c1cnc(N)s1 | 4.73
27 | Cc1c2ccncc2c(C)c2c1[nH]c1ccccc12 | 4.71
28 | Cc1ccnc(NC(c2cccnc2)c2ccc3cccnc3c2O)c1 (stereo unspecified) | 4.65
29 | Cc1cccc(Nc2c3c(nc4ccccc24)CCC3)c1 | 3.96
30 | CCCCCCCCCC[N+](C)(C)CC/C=C1/c2ccccc2Sc2ccc(Cl)cc21 | 4.72
31 | CCCCCCCCNc1ncnc2ccccc12 | 3.82
32 | CC[n+]1c(/C=C/N(C)c2ccccc2)n(-c2ccccc2)c2ccc(-c3nc4ccccc4s3)cc21 | 4.71
33 | Cc1ccc(Cn2c(=N)n(CC(=O)c3ccc([N+](=O)[O-])cc3)c3ccccc32)cc1 | 3.99
34 | O=[N+]([O-])c1ccc(CNC2CCCc3ccccc32)cc1 (stereo unspecified) | 4.01
35 | Cc1conc1NC(c1cccs1)c1ccc2cccnc2c1O (stereo unspecified) | 4.60
36 | Nc1nonc1C(=O)N/N=C/c1cc(Br)ccc1O | 5.04
37 | CCCCCN=C(N)N/N=C/c1c[nH]c2ccc(OC)cc12 | 4.43
38 | Cc1[nH]c2ccccc2c1C(=O)COC(=O)c1ccc([N+](=O)[O-])s1 | 3.89

Row | Structure (SMILES) | pIC50
39 | CNc1nc(NCc2ccccc2)c2ccccc2n1 | 4.10
40 | CCCCCCCCCCCCCCCC[n+]1cccc2ccccc21 | 4.72
41 | C[C@H]1c2cccc(O)c2C(O)=C2C(=O)[C@]3(O)C(O)=C(C(N)=O)C(=O)[C@@H](N(C)C)C3[C@@H](O)C21 (stereo partly specified) | 5.64
42 | NC1CCN(c2nc3c(cc2F)c(=O)c(C(=O)O)cn3-c2ccc(F)cc2F)C1 (stereo unspecified) | 5.95
43 | CC[n+]1c(/C=C/c2ccc(N(C)C)cc2)ccc2ccccc21 | 4.43
44 | CN(C)C1C(=O)C(C(N)=O)=C(O)C2(O)C(=O)C3=C(O)c4c(O)cccc4C(C)(O)C3CC12 (stereo unspecified) | 6.00
45 | COc1c(N2CCN[C@H](C)C2)c(F)cc2c(=O)c(C(=O)O)cn(C3CC3)c12 | 6.11
46 | FC(F)(F)c1ccc2c(c1)N(CCCN1CCN(CCCl)CC1)c1ccccc1S2 | 3.96
47 | C#CCOCCOCCOCCNc1nc(N2CCN(C(=O)CCCCCCCCCCNC(=O)[C@H](CCCCN)n3cc(C[C@@H](C)CC)nn3)CC2)nc(N2CCN(C(=O)CCCCCCCCCCNC(=O)[C@H](CCCN=C(N)N)n3cc(C[C@@H](C)CC)nn3)CC2)n1 | 4.11
48 | Cc1cccc(Nc2nc(NCc3ccco3)c3ccccc3n2)c1 | 4.26
49 | CC1CCc2c(N3CCC(O)CC3)c(F)cc3c(=O)c(C(=O)O)cn1c23 (stereo unspecified) | 4.82
50 | CC(=O)NC(c1cccs1)c1cc([N+](=O)[O-])c2cccnc2c1O (stereo unspecified) | 4.51
51 | Nc1nonc1-n1nnc(C(=O)N/N=C/c2cc(Br)ccc2O)c1CSC1=NCCS1 | 4.72
52 | CCOC(=O)Cc1csc(NC(=O)NC2(C(F)(F)F)Oc3cc(Cl)c(Cl)cc3O2)n1 | 4.13
53 | CN1CCN(CCCN2c3ccccc3Sc3ccc(Cl)cc32)CC1 | 4.29
54 | C=C1c2c(Cl)ccc(O)c2C(O)=C2C(=O)[C@]3(O)C(O)=C(C(N)=O)C(=O)[C@@H](N(C)C)[C@@H]3[C@@H](O)C12 (stereo partly specified) | 5.89
55 | COc1cccc(Nc2nc(NCC3CCCO3)c3ccccc3n2)c1 (stereo unspecified) | 4.06
56 | O=S1(=O)CCC(NC(=S)SCCOc2ccccc2)C1 (stereo unspecified) | 4.19

Reference: PubChem BioAssay AID2401 (Southern Research Specialized Biocontainment Screening …, 2010)
